Series [1] relates to lipopolysaccharide induced inflammatory pain (mechanical allodynia). Type of series: in vivo, rat. The settings on record: for effect on lipopolysaccharide induced allodynia over the dose range: s.c. 60 min prior to lipopolysaccharide, at 2 h.
The conditions of series [2]: cynomolgus monkey; ref Ulu et al., 2011; cited from earlier work.
In series [3] the test system is streptozocin induced type I diabetic neuropathic pain (mechanical allodynia). It counts as in vivo, rat. Conditions: for anti-allodynic effect over the time course versus vehicle: 15 min to 6 h; for effect on neuropathic allodynia versus vehicle: 10 mg/kg s.c., over 6 h time course.
Series [4] concerns plasma epoxyeicosatrienoic acids, dihydroxyeicosatrienoic acids, PGE2 and PGD2. Put plainly: plasma oxylipin analysis in the inflammatory pain model. The settings on record: 2 h post lipopolysaccharide. Type of series: in vivo, rat.
For series [5], the system named is naive rats. The series is described as follows: von Frey assay in the absence of a pain state. Type of series: in vivo, rat. The settings on record: for mechanical withdrawal thresholds in naive rats: 3 mg/kg.
The conditions of series [6]: ref Liu et al., 2009; cited from earlier work.
The conditions of series [7]: ref Liu 2009; cited from earlier work.
The subject of series [8] is naive rats. The series is described as follows: rotorod motor skill test. Conditions: 3 mg/kg.
For another series, the system named is human sEH. Conditions: read-out: IC50 Human, fluorescent assay, ref Hwang 2007; cited from earlier work.
The nature of a further series: experimental logP. The settings on record: determined experimentally as described by Tsai et al. 2010.
Series [9] can be described thus: plasma pharmacokinetics in rat. It counts as in vivo. The settings on record: low dose, mean plasma AUC (S2).
The mark [10] stands for this setting: 3 mg/kg s.c. 60 min prior to lipopolysaccharide.

Structures can show the parent of a compound that is named as a salt.

Regarding `CC(=O)N1CCC(NC(=O)NC23CC4CC(CC(C4)C2)C3)CC1` [APAU, 1-(1-acetypiperidin-4-yl)-3-adamantanylurea], in series [1] (3 mg/kg oral gavage in PEG400, 1 h prior to lipopolysaccharide), the “effect of oral gavage dose compared to s.c. dose” value is “equaled the maximal effect of the s.c. dose”. In series [1] (setting [10]), the “earliest time point at which pain was blocked” value worked out at 15 min and the “effect over the time course versus vehicle control” value is “significant versus vehicle control over the time course”. The “effect on lipopolysaccharide induced allodynia over the dose range” value in series [1] is recorded as “All doses of APAU except 0.1 mg/kg significantly blocked the lipopolysaccharide induced allodynia”. In [2], the plasma protein binding was 35.5%. Also, in series [3] (3 mg/kg s.c., diabetic rats), the duration of anti-nociception result is on record as “up to 5 h”, the “time of first anti-allodynic effect” value was 15 min and the “anti-allodynic effect over the time course versus vehicle” value was “blocked allodynia by the first measurement at 15 minutes”. For the same molecule, the “effect on neuropathic allodynia versus vehicle” value in series [3] (diabetic rats) is given as “significantly decreased allodynia”. In [3] (s.c., dose range 0.1-100 mg/kg, at 2 h), the “most effective dose against allodynia” value was 3 mg/kg. For the same molecule, the “plasma PGE2 and PGD2 versus lipopolysaccharide + vehicle” value in [4] (3 mg/kg) is “reduced both prostaglandins significantly”. For the same molecule, the “plasma PGE2 and PGD2 versus lipopolysaccharide + vehicle” value in series [4] (100 mg/kg) was “did not significantly decrease PGE2 and PGD2 levels”. Moreover, in [4] (3 and 100 mg/kg), the “sum dihydroxyeicosatrienoic acids in plasma versus vehicle controls” value is reported as “significantly lowered dihydroxyeicosatrienoic acids” and the “sum epoxyeicosatrienoic acids in plasma versus vehicle controls” value is “did not significantly alter sum epoxyeicosatrienoic acids levels”. In addition, the “mechanical withdrawal thresholds in naive rats” value in the series with naive rats [5] is on record as “showed no effect in the assay”. The “nociceptive thresholds in absence of pain state versus vehicle” value in the series on naive rats [5] (100 mg/kg) was “did not significantly alter the nociceptive thresholds”. Also, the plasma half-life entry in series [6] was “relatively short plasma half-life”. Moreover, in series [7], the “Water Solubility” value is given as 310 ±60 mg/L^b.
Turning to `Cc1ccc(-c2cc(C(F)(F)F)nn2-c2ccc(S(N)(=O)=O)cc2)cc1` [celecoxib, reference compound], in series [1] (10 mg/kg, 1 h prior to intraplantar lipopolysaccharide, over 6 h time course), the “effect on lipopolysaccharide induced allodynia” value is on record as “marginal effect at the 3 hour time point”. For the same molecule, the “effect on neuropathic allodynia versus vehicle” value in series [3] (diabetic rats) is reported as “no significant effect on the neuropathic allodynia”.
`CN1CC[C@]23c4c5ccc(O)c4O[C@H]2[C@@H](O)C=C[C@H]3[C@H]1C5` [morphine, Morphine sulfate, reference compound]: the “mechanical withdrawal thresholds in naive rats” value in the series with naive rats [5] is recorded as “significant increase in mechanical withdrawal thresholds”. Also, in the series on naive rats [8], the “rotorod performance versus vehicle controls” value is “no significant effect on rotorod performance”.
For `O=C(NC12CC3CC(CC(C3)C1)C2)N[C@H]1CC[C@H](Oc2ccc(C(=O)O)cc2)CC1` [t-AUCB, trans-4-[4-(3-adamantan-1-yl-ureido)-cyclohexyloxy]-benzoic acid], the “effect over the time course versus vehicle control” value in series [1] (setting [10]) is reported as “lacked a significance versus vehicle control over the time course”. Also, the “effect on lipopolysaccharide induced allodynia over the dose range” value in series [1] was “significantly blocked pain related behavior only at the two highest doses 30 and 100 mg/kg”. For the same molecule, the IC50 in the series on human sEH is […]. The “anti-allodynic effect over the time course versus vehicle” value in series [3] (3 mg/kg s.c., diabetic rats) is recorded as “significant versus vehicle control over the time course but overall the effect was brief”. Besides, in [3] (s.c., dose range 1-100 mg/kg, at 2 h), the “only dose with significant anti-allodynic effect” value was determined as 100 mg/kg.
On to `O=C(Nc1cccc(OC(F)(F)F)c1)N[C@H]1CC[C@H](Oc2ccc(C(=O)O)cc2)CC1` [t-TUCB, trans-4-[4-(3-trifluoromethoxyphenyl-l-ureido)-cyclohexyloxy]-benzoic acid], for which the plasma protein binding in [2] is on record as 99%. Besides, the IC50 with human sEH is 0.9 nM. The molecule also yielded an eLogP in “experimental logP” of 1.6. Moreover, in series [3] (3 mg/kg s.c., diabetic rats), the “anti-allodynic effect over the time course versus vehicle” value was “significantly effective versus vehicle control over the time course but was delayed and less active when compared to APAU”. Besides, the mechanical withdrawal thresholds entry in [3] (10 mg/kg, diabetic rats, early time points (Fig. S1, Table S3)) is “increased mechanical withdrawal thresholds to pre-diabetic pain free scores at early time points”. For the same molecule, the “dose of maximal response, the only significant dose” value in series [3] (s.c., dose range 0.1-100 mg/kg, at 3 h) was found to be 10 mg/kg. Also, in series [9], the “overall pharmacokinetics in rats” value is listed as “best overall pharmacokinetics at low dose”.
